Data set [1] has as its system co-culture of keratinocytes and melanocytes. The data set is described as follows: Inhibitory activity on melanin synthesis (constitutive melanogenesis), ratio of thiouracil to leucine incorporation. The class given is cell-based. The note with it: for IC50: thiouracil/leucine incorporation ratio relative to 100% of the control, read-out: IC50 (concentration for which 50% of the synthesis of melanin is inhibited). How it is done: The modulatory effect of compound 1 on melanogenesis was measured by the method described in patent FR-A-2 734 825 and also in the article by R. Schmidt, P. Krien and M. Régnier, Anal. Biochem., 235(2), 113-18, 1996. This test is carried out on a co-culture of keratinocytes and melanocytes.
For the compound tested, the following parameters were ascertained: • the cytotoxicity, by estimation of the incorporation of leucine, • the inhibitory activity on melanin synthesis, by estimating the ratio of incorporation of thiouracil to the incorporation of leucine, relative to 100% of the control (the control corresponds to the test carried out without compound tested). The IC50 values (concentration for which 50% of the synthesis of melanin is inhibited) were ascertained.
The test was also carried out with arbutin and kojic acid, which are known depigmenting compounds.

For data set [2] the test system is unchanged. The data set is described as follows: Cytotoxicity by estimation of the incorporation of leucine. The class given is cell-based. Here is the method: The modulatory effect of compound 1 on melanogenesis was measured by the method described in patent FR-[…]. Schmidt, P. […], Anal. Biochem., 235(2), 113-18, 1996. This test is carried out on a co-culture of keratinocytes and melanocytes. […] The test was also carried out with arbutin and kojic acid, which are known depigmenting compounds.

Take `O=C1CC(=O)C(Cc2ccc(O)cc2O)C1` (centres unmarked): the IC50 in data set [1] was determined as 52 µM. For the same compound, in data set [2], the Cytotoxicity on co-culture result was “Non-cytotoxic”.
For the compound `OC[C@H]1O[C@@H](Oc2ccc(O)cc2)[C@H](O)[C@@H](O)[C@@H]1O` [Arbutin, reference compound], in data set [1], the IC50 is > 500 µM. In addition, the Cytotoxicity on co-culture result in data set [2] was “Non-cytotoxic”.
As to `O=C1CC(Cc2ccc(O)cc2O)C(=O)N1` (centres unmarked) [Compound 1, 3-(2,4-dihydroxybenzyl)pyrrolidine-2,5-dione], the “efficacy in inhibiting melanogenesis compared with arbutin and kojic acid” value in data set [1] is “more effective than arbutin and kojic acid”.
One may read the melting point as the temperature of the solid-liquid transition. The compound `CCCCN1C(=O)CC(Cc2ccc(O)cc2O)C1=O` (centres unmarked) [Compound 7, 3-(2,4-dihydroxybenzyl)-1-butylpyrrolidine-2,5-dione] yielded a melting point of 122 to 123 °C. In data set [1], the “efficacy in inhibiting melanogenesis compared with arbutin and kojic acid” value is “more effective than arbutin and kojic acid”.
Turning to `O=C1CC(Cc2ccc(O)cc2O)C(=O)N1CCO` (centres unmarked) [Compound 12, 3-(2,4-dihydroxybenzyl)-1-(2-hydroxyethyl)pyrrolidine-2,5-dione], the “efficacy in inhibiting melanogenesis compared with arbutin and kojic acid” value in data set [1] is “more effective than arbutin and kojic acid”.
Take `CCOC(=O)CN1C(=O)CC(Cc2ccc(O)cc2O)C1=O` (centres unmarked) [Compound 32, ethyl [3-(2,4-dihydroxybenzyl)-2,5-dioxopyrrolidin-1-yl]acetate]: the “efficacy in inhibiting melanogenesis compared with arbutin and kojic acid” value in data set [1] is “more effective than arbutin and kojic acid”.
In the case of `O=c1cc(CO)occ1O` [Kojic acid, reference compound], the IC50 in data set [1] was > 500 µM. Besides, in data set [2], the Cytotoxicity on co-culture was 100 µM.
Consider `CCCCN1C(=O)CC(Cc2ccc(O)cc2O)C1=O` (centres unmarked) [drawing 126], for which the IC50 in data set [1] came to 8.3 µM. The Cytotoxicity on co-culture entry in data set [2] is recorded as “Non-cytotoxic”.
For `CCOC(=O)CN1C(=O)CC(Cc2ccc(O)cc2O)C1=O` (centres unmarked) [drawing 128], the IC50 in data set [1] came to 9.2 µM. The Cytotoxicity on co-culture result in data set [2] is “Non-cytotoxic”.
Regarding `O=C1CC(Cc2ccc(O)cc2O)C(=O)N1CCO` (centres unmarked) [drawing 129], in data set [1], the IC50 was 14.9 µM. In addition, the Cytotoxicity on co-culture entry in data set [2] was “Non-cytotoxic”.

(Values after patent publication US8937187B2, “Method for depigmenting keratin materials using resorcinol derivatives” (L'Oreal, priority 2010, dated 2015).)
